Assay results: article PMC5914528 (Molecular microbiology, 2018)

Key:
[1] = biological target: T1, QscR (Pseudomonas aeruginosa, UniProt G3XD77); details: DNA binding of QscR with ligand; Eqn 5
[2] = biological target: LasR (Pseudomonas aeruginosa, UniProt P25084); assay: LasR agonism/antagonism assay, E. coli reporter strain; format: cell-based; details: Table S2 (supplement not shown)
[3] = biological target: T1, QscR; format: cell-based; details: for Activation (%): 100% = activity of 3OC12-HSL

Chain of LasR (P25084 whole entry): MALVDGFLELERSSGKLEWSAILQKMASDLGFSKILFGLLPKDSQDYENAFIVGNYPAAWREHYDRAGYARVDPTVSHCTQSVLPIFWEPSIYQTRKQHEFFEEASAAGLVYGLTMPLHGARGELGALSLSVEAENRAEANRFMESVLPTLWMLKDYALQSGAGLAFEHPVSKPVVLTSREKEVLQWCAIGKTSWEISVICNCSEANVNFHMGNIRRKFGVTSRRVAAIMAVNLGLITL

Row | Compound | Hill coefficient [1] | activity on LasR in cell-based reporter assays [2] | Activation (%) [3] [%] | EC50 ([3]; E. coli JLD271 QscR reporter) [nM]
1 | O=C(CCCOc1ccc(Cl)cc1)NC1CCOC1=O (stereo not drawn) [CL] | 1.9 ± 0.3 | inhibited | 86 | 16
2 | CCCCCCCCCC(=O)CC(=O)N[C@H]1CCOC1=O [3OC12-HSL, N-(3-oxododecanoyl) L-homoserine lactone] | 1.7 ± 0.4 |  | 100 | 
